Test results: ChEMBL document CHEMBL1145663, “Studies on iridoid-related compounds, II. The structure and antimicrobial activity of aglucones of galioside and gardenoside” (1983)
≈ marks a conversion by molar mass, not a printed value. Calls of active or inactive are those of the source. The rule behind the calls is not given here.

Key:
[1] = test system: Staphylococcus aureus; experiment: Antimicrobial activity against Staphylococcus aureus after 20 hrs by agar dilution method; format: functional
[2] = test system: Klebsiella pneumoniae; experiment: Antimicrobial activity against Klebsiella pneumoniae after 20 hrs by agar dilution method; format: functional

| SMILES | Activity [1] | Activity [2] | MIC [1] [µg/mL] | MIC [2] [µg/mL] |
| --- | --- | --- | --- | --- |
| COC(=O)C1=CO[C@@H](O[C@@H]2O[C@H](CO)[C@@H](O)[C@H](O)[C@H]2O)[C@H]2[C@@H]1C=C[C@]2(O)CO | Active | Active | – | – |
| COC(=O)C1=CO[C@@H](O)[C@H]2[C@@H]1C=C[C@]2(O)CO | – | – | 125 (≈ 516 µM) | 1000 (≈ 4130 µM) |
